Source: patent US20020137929A1, “1 - (3-heterocyclylphenyl) isothiourea, -isourea, -guanidine and -amidine herbicidal agents” (Intellectual Property Department, BASF Aktiengesellschaft, priority 1998, published 2002)

What was measured:
[1] = test system: TRZAWR (Wheat, Winter, cv Riband); assay: Preemergence herbicidal evaluation; format: in vivo, Triticum aestivum; details: rated 4-5 weeks after treatment, rating scale 0-9
Summary of the method: (§1)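 Herbicidal effect scored visually, 0-9, at 4 to 5 weeks against a control; compound applied preemergence by aqueous acetone spray to seeded soil at about 0.0156 to 0.500 kg/ha.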

ZEAMX (Corn, Field) [2] = assay: Preemergence herbicidal evaluation; format: in vivo, Zea mays; details: rated 4-5 weeks after treatment, rating scale 0-9
Summary of the method: as §1

CYPIR (Rice Flatsedge) = assay: Preemergence weed control under flooded paddy conditions; format: in vivo, Cyperus iria; details: rated 3-4 weeks after treatment
Summary of the method: (§2)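 Ratings on a 0-9 visual scale cover stand, vigor, malformation, size, chlorosis and overall appearance relative to a control, taken three to four weeks post-treatment. Application was into flood water over freshly sown silt loam at roughly 0.0313 to 0.500 kg/ha.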

[3] = test system: ECHORC (Watergrass (Calif.)); assay: as above; format: in vivo, Echinochloa oryzoides; details: rated 3-4 weeks after treatment
Summary of the method: as §2

ORYSAT (Rice, Tebonnet) = assay: Postemergence herbicidal evaluation; format: in vivo, Oryza sativa, (L.) Tebonnet; details: postemergence
Summary of the method: (§3)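 Each compound, dispersed in an acetone/water mix (50/50) carrying 0.5% TWEEN 20, is nozzle-sprayed at 40 psi on approximately two-week-old seedlings at about 0.0156–0.500 kg/ha. Plants are assessed 4–5 weeks afterward on a 0–9 scale relative to control; duplicate tests are averaged.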

ZEAMX (Corn, Field) [4] = assay: Postemergence herbicidal evaluation; format: in vivo, Zea mays; details: postemergence
Summary of the method: as §3

ECHCG (Barnyardgrass) = assay: Preemergence herbicidal evaluation; format: in vivo, Echinochloa crus-galli; details: rated 4-5 weeks after treatment, rating scale 0-9
Summary of the method: as §1

SETVI (Foxtail, Green) [5] = assay: Postemergence herbicidal evaluation; format: in vivo, Setaria viridis; details: postemergence
Summary of the method: as §3

CYPSE (Flatsedge) = assay: Preemergence weed control under flooded paddy conditions; format: in vivo, Cyperus serotinus; details: rated 3-4 weeks after treatment
Summary of the method: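 Visual injury scored 0-9 against control three to four weeks post-treatment, greenhouse-grown. Application: acetone/water (50/50) solutions dosed directly into flood water (1.5-3 cm over silt loam, planted top 0.5 cm), roughly 0.0313 to 0.500 kg/ha active ingredient.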

SETVI (Foxtail, Green) [6] = assay: Preemergence herbicidal evaluation; format: in vivo, Setaria viridis; details: rated 4-5 weeks after treatment, rating scale 0-9
Summary of the method: as §1

SMILES	Preemergence herbicidal rating TRZAWR ([1]; rate 0.0625 kg/ha)	Preemergence herbicidal rating TRZAWR ([1]; rate 0.1250 kg/ha)	Preemergence herbicidal rating TRZAWR ([1]; rate 0.2500 kg/ha)	Preemergence herbicidal rating ZEAMX (ZEAMX (Corn, Field) [2]; rate 0.0625 kg/ha)	Preemergence herbicidal rating ZEAMX (ZEAMX (Corn, Field) [2]; rate 0.1250 kg/ha)	Preemergence herbicidal rating ZEAMX (ZEAMX (Corn, Field) [2]; rate 0.2500 kg/ha)	herbicidal effect rating, CYPIR (CYPIR (Rice Flatsedge); 0.0313 kg/ha)	herbicidal effect rating, CYPIR (CYPIR (Rice Flatsedge); 0.0625 kg/ha)	herbicidal effect rating, CYPIR (CYPIR (Rice Flatsedge); 0.1250 kg/ha)	herbicidal effect rating, CYPIR (CYPIR (Rice Flatsedge); 0.2500 kg/ha)	herbicidal effect rating, ECHORC ([3]; 0.0313 kg/ha)	herbicidal effect rating, ECHORC ([3]; 0.0625 kg/ha)	herbicidal effect rating, ECHORC ([3]; 0.1250 kg/ha)	herbicidal effect rating, ECHORC ([3]; 0.2500 kg/ha)	herbicidal rating ORYSAT (ORYSAT (Rice, Tebonnet); rate 0.0156 kg/ha)	herbicidal rating ORYSAT (ORYSAT (Rice, Tebonnet); rate 0.0313 kg/ha)	herbicidal rating ORYSAT (ORYSAT (Rice, Tebonnet); rate 0.0625 kg/ha)	herbicidal rating ZEAMX (ZEAMX (Corn, Field) [4]; rate 0.0156 kg/ha)	herbicidal rating ZEAMX (ZEAMX (Corn, Field) [4]; rate 0.0313 kg/ha)	herbicidal rating ZEAMX (ZEAMX (Corn, Field) [4]; rate 0.0625 kg/ha)	other results
COc1cccc(CN2C(=O)CSC2=Nc2cc(-n3c(=O)cc(C(F)(F)F)n(C)c3=O)c(F)cc2Cl)c1 [Compound 137, 3-{4-Chloro-2-fluoro-5-{[3-(m-methoxybenzyl)-4-oxo-2-thiazolidinylidene]amino}phenyl}-1-methyl-6-(trifluoromethyl)-2,4(1H,3H)-pyrimidinedione]	0.0	0.0	0.0	0.0	0.0	0.0	3.0	2.0	2.0	4.0	3.0	3.0	3.0	5.0	3.0	3.0	3.5	4.0	4.0	4.0	Preemergence herbicidal rating ECHCG (ECHCG (Barnyardgrass); rate 0.0625 kg/ha): 0.0; Preemergence herbicidal rating ECHCG (ECHCG (Barnyardgrass); rate 0.1250 kg/ha): 0.0; Preemergence herbicidal rating ECHCG (ECHCG (Barnyardgrass); rate 0.2500 kg/ha): 0.0; herbicidal rating SETVI (SETVI (Foxtail, Green) [5]; rate 0.0156 kg/ha): 1.0; herbicidal rating SETVI (SETVI (Foxtail, Green) [5]; rate 0.0313 kg/ha): 1.0; herbicidal rating SETVI (SETVI (Foxtail, Green) [5]; rate 0.0625 kg/ha): 3.0; herbicidal effect rating, CYPSE (CYPSE (Flatsedge); 0.0313 kg/ha): 0.0; herbicidal effect rating, CYPSE (CYPSE (Flatsedge); 0.0625 kg/ha): 0.0; herbicidal effect rating, CYPSE (CYPSE (Flatsedge); 0.1250 kg/ha): 0.0; herbicidal effect rating, CYPSE (CYPSE (Flatsedge); 0.2500 kg/ha): 0.0; Preemergence herbicidal rating SETVI (SETVI (Foxtail, Green) [6]; rate 0.0625 kg/ha): 0.0; Preemergence herbicidal rating SETVI (SETVI (Foxtail, Green) [6]; rate 0.1250 kg/ha): 0.0; Preemergence herbicidal rating SETVI (SETVI (Foxtail, Green) [6]; rate 0.2500 kg/ha): 2.0
COc1ccc(CN2C(=O)CSC2=Nc2cc(-n3c(=O)cc(C(F)(F)F)n(C)c3=O)c(F)cc2Cl)c(OC)c1 [Compound 139, 3-{4-Chloro-5-{[3-(2,4-dimethoxybenzyl)-4-oxo-2-thiazolidinylidene]amino}-2-fluorophenyl}-1-methyl-6-(trifluoromethyl)-2,4(1H,3H)-pyrimidinedione]	0.0	0.0	1.0	0.0	0.0	1.0	2.0	4.0	5.0	6.0	6.0	7.0	7.0	7.0	2.0	3.0	3.5	4.5	4.5	5.0	Preemergence herbicidal rating TRZAWR ([1]; rate 0.0156 kg/ha): 0.0; Preemergence herbicidal rating TRZAWR ([1]; rate 0.0313 kg/ha): 0.0; Preemergence herbicidal rating ZEAMX (ZEAMX (Corn, Field) [2]; rate 0.0156 kg/ha): 0.0; Preemergence herbicidal rating ZEAMX (ZEAMX (Corn, Field) [2]; rate 0.0313 kg/ha): 0.0; Preemergence herbicidal rating ECHCG (ECHCG (Barnyardgrass); rate 0.0156 kg/ha): 1.0; Preemergence herbicidal rating ECHCG (ECHCG (Barnyardgrass); rate 0.0313 kg/ha): 0.0; Preemergence herbicidal rating ECHCG (ECHCG (Barnyardgrass); rate 0.0625 kg/ha): 0.0; Preemergence herbicidal rating ECHCG (ECHCG (Barnyardgrass); rate 0.1250 kg/ha): 1.0; Preemergence herbicidal rating ECHCG (ECHCG (Barnyardgrass); rate 0.2500 kg/ha): 1.0; herbicidal rating SETVI (SETVI (Foxtail, Green) [5]; rate 0.0156 kg/ha): 2.0; herbicidal rating SETVI (SETVI (Foxtail, Green) [5]; rate 0.0313 kg/ha): 2.0; herbicidal rating SETVI (SETVI (Foxtail, Green) [5]; rate 0.0625 kg/ha): 5.0; herbicidal effect rating, CYPSE (CYPSE (Flatsedge); 0.1250 kg/ha): 0.0; herbicidal effect rating, CYPSE (CYPSE (Flatsedge); 0.2500 kg/ha): 0.0; Preemergence herbicidal rating SETVI (SETVI (Foxtail, Green) [6]; rate 0.0156 kg/ha): 0.0; Preemergence herbicidal rating SETVI (SETVI (Foxtail, Green) [6]; rate 0.0313 kg/ha): 0.0; Preemergence herbicidal rating SETVI (SETVI (Foxtail, Green) [6]; rate 0.0625 kg/ha): 0.0; Preemergence herbicidal rating SETVI (SETVI (Foxtail, Green) [6]; rate 0.1250 kg/ha): 1.0; Preemergence herbicidal rating SETVI (SETVI (Foxtail, Green) [6]; rate 0.2500 kg/ha): 7.0
